Here are results for one substance from US6887853B2, “Use of geldanamycin and related compounds for treatment of fibrogenic disorders” (The Trustees of Boston University, priority 2000, dated 2005).

The subject of experiment [1] is Smad DNA-binding activity. The experiment in a line: Electrophoretic mobility shift assay, Smad binding element (SBE), 3T3 nuclear extracts. The class given is cell-based, mouse. The note with it: 15 minute TGF-β treatment alone. A general note: In EMSA bound probe runs differently from free probe, usually more slowly.
Procedure: (A) Cells were harvested and subjecting to electrophoretic mobility shift analysis using a Smad binding element (SBE). […] Where indicated, extracts were prepared with 100-fold higher levels of cold competitor probe. (B) Cells were subjected to 24 hour treatments with geldanamycin at various concentrations and extracts prepared and bound to control Oct-1-binding duplex oligos to monitor non-specific effects of geldanamycin.
Protein concentrations of extracts were determined using the BCA reagent (Pierce). […] The probes were end-labeled using γ-^32P-ATP and T4 polynucleotide kinase. Electrophoretic mobility shift assays (EMSA) were performed using 5 μg nuclear extract, 1 μl poly dI/dC (1 mg/ml), 0.1 ng of labeled probe (in 1 μl), and buffer G to achieve a final volume of 10 μl. Buffer G consists of 20 mM Hepes (pH 7.6), 100 mM KCl, 0.2 mM EDTA and 20% glycerol. Extracts and oligo were incubated 15 minutes at room temperature before adding loading buffer and running on a non-denaturing gel.
Electrophoretic mobility shift assays were performed to examine whether geldanamycin reduced the level of Smad DNA-binding activity in nuclear extracts. As before, cells were also subjected to TGF-β or TGF-β and geldanamycin together. […]
The test system of experiment [2] is endogenous collagen transcript in mouse 3T3 cells. The experiment in a line: Northern analysis of endogenous α1(I) collagen message, NIH 3T3 fibroblasts. Format: cell-based. The note with it: TGF-β alone, 24 hour. On the procedure:
FIGS. 7A-7C show fibroblasts subjected to 24-hour treatments with geldanamycin, TGF or both. After 24 hours, total RNA was harvested and subjected to northern analysis using an α1(I) collagen probe. (A) Northern analysis using NIH 3T3 fibroblasts. (B) Northern analysis using primary healthy human dermal fibroblasts. (C) Methylene blue staining of the filter in (B). Numbers represent relative intensities of the lower collagen band after normalizing bands to GAPDH band intensity; The clone corresponding to Hsp90-α was purchased as an EST from Genome Systems. […] Sequencing was performed at the Boston University DNA/Protein Sequencing Core. Northern analysis of Hsp90 to total RNA from scleroderma and healthy fibroblasts was performed as previously described (10). Geldanamycin was a generous gift of the National Cancer Institute. Geldanamycin was dissolved in dimethylsulfoxide (DMSO) and used at a final concentration of 2 μM except where indicated otherwise. DMSO without geldanamycin was added as the carrier control for all experiments using geldanamycin. The chaperone function of Hsp90 is dependent on the hydrolysis of ATP (44). […] Geldanamycin was examined to determine whether its inhibition of Hsp90 affected TGF-β activation of collagen transcription in mouse 3T3 and human dermal fibroblasts. Endogenous collagen message levels were used as a measure of TGF-β signal transduction. […]

Experiment [3] has as its system PN1 promoter. Briefly: Protease nexin 1 (PN1) promoter luciferase reporter in transfected NIH 3T3 cells. The class given is cell-based, mouse. The note with it: NIH 3T3, TGF-β alone, 24 hour. On the procedure: (§1) The latter contains a 4.5 kb fragment of the PN1 promoter driving the luciferase gene. Cells were incubated for 24 hours after transfection, washed 3 times with PBS and then subjected to a 24 hour treatment with geldanamycin, TGF or both, as indicated. Cells were then harvested and luciferase activities determined; Transient transfections were performed using lipofectamine (Gibco BRL) as follows: 10 μg (total) of indicated plasmid DNA was mixed with 30 μl of lipofectamine and 500 μl of serum-free DMEM (Gibco). This mixture was incubated at room temperature for 20 minutes. Ten cm dishes of sub-confluent 3T3 fibroblasts were rinsed with PBS, and 5 ml of serum free DMEM added to each dish. The DNA/lipofectamine mixture was added to each dish and incubated in the 37° CO2 incubator for 4 hours. Ten ml of DMEM with 15% serum was added and plates were incubated overnight. Medium was replaced with 10% serum at 24 hours and extracts of cells were harvested at 48 hours. Cell extracts were obtained using Passive Lysis Buffer (Promega) and assays were performed according to the Promega protocol for pGL3 luciferase vectors. Protein concentrations of all extracts were determined and each luciferase reading is normalized for protein concentration. The 4.7 kb human MMP1 promoter driving luciferase was a gift of Constance Brinckerhoff (Dartmouth Medical School) (36). […]
(In general: A reporter such as luciferase makes a cellular process visible.)

Experiment [4] relates to TGF-β-sensitive promoter in the 3TPlux construct. The experiment in a line: TGF-β-sensitive 3TPlux luciferase reporter in transfected NIH 3T3 cells. Format: cell-based, mouse. The note with it: NIH 3T3, TGF-β by itself, 24 hour. On the procedure: as §1

In the case of TGF-β, the “nuclear Smad after TGF-β treatment” value in experiment [1] was “modest increase”. Besides, the “increase of endogenous collagen transcript level” value in experiment [2] (NIH 3T3, absence of serum) is given as “approximately 6 fold”; in experiment [2] (NIH 3T3, presence of serum), 2 fold. Besides, in experiment [3], the “effect of TGF-β on the expression of the PN1 promoter” value is on record as “little effect”. In experiment [4], the “induction of the activity of the 3TPlux promoter” value is 3.5 fold.
